{
  "source": "patent US7282602B2",
  "about": "“Medicinal disulfide salts” (BioNumerik Pharmaceuticals, Inc., priority 2004, dated 2007)",
  "assay": "toxicity in vivo (lethality)",
  "method": "The formula I compounds may be administered in any convenient dosage form, with the preferred formulations adapted for oral (PO) or intravenous (IV) administration. Since the water solubility of the compounds exceeds 200 mg/mL, formulations are not anticipated to be difficult to make.",
  "data": [
    {"compound": "O=S(=O)([O-])CCSSCCS(=O)(=O)[O-].[Na+].[Na+]", "note": "[Dimesna, Disodium 2,2′-dithiobis ethane sulfonate]", "values": [
      {"measurement": "toxicity compared with common table salt", "result": "less toxic than common table salt"},
      {"measurement": "amount not causing a single death in vivo", "setting": "IV", "result": "exceeding 5000 mg/kg"}
    ]}
  ]
}
